Results: ChEMBL document CHEMBL1614632, “Trend analysis of a database of intravenous pharmacokinetic parameters in humans for 670 drug compounds” (Drug Metab Dispos, 2008)

Legend:
[1] = clinical; settings: human, in vivo, iv, Vdss
[2] = clinical; settings: human, in vivo, iv, CL
[3] = clinical; settings: human, in vivo, iv, t1/2
[4] = clinical; settings: human, in vivo, iv

Row | Compound | Vd [1] [L/kg] | clearance [2] [L/h/kg] | half-life [3] [h] | MRT [4] [h]
1 | CC1(C)S[C@@H]2[C@H](NC(=O)[C@H](N)c3ccc(O)cc3)C(=O)N2[C@H]1C(=O)O [AMOXICILLIN] | 0.25 | 0.198 | 1.1 | 1.3
2 | CN(CCOc1ccc(CC2SC(=O)NC2=O)cc1)c1ccccn1 (stereo not given) [ROSIGLITAZONE] |  | 0.039 | 3.9 | 
3 | NC1CCN(c2c(F)cc3c(=O)c(C(=O)O)cn(C4CC4)c3c2Cl)C1 (stereo not given) [CLINAFLOXACIN] | 1.9 | 0.282 | 5.4 | 6.7
4 | Nc1ccc(S(=O)(=O)Nc2ncccn2)cc1 [SULFADIAZINE] | 0.29 | 0.033 | 7 | 8.8
5 | CCNCC(O)c1cccc(O)c1 (stereo not given) [ETILEFRINE] | 2.1 | 0.84 | 2.2 | 2.5
6 | C[C@H]1COc2c(N3CCN(C)CC3)c(F)cc3c(=O)c(C(=O)O)cn1c23.C[C@H]1COc2c(N3CCN(C)CC3)c(F)cc3c(=O)c(C(=O)O)cn1c23.O [LEVOFLOXACIN] | 1.2 | 0.114 | 8.8 | 11
7 | CC1=C(C(=O)O)N2C(=O)[C@@H](NC(=O)[C@H](N)C3=CCC=CC3)[C@H]2SC1 [CEPHRADINE] | 0.21 | 0.198 | 0.85 | 1.1
8 | C[C@H]1c2cccc(O)c2C(=O)C2=C(O)[C@]3(O)C(=O)C(C(N)=O)=C(O)[C@@H](N(C)C)[C@@H]3[C@@H](O)[C@@H]21.O [DOXYCYCLINE] | 0.69 | 0.0276 | 14 | 25
9 | CCC(CC)O[C@@H]1C=C(C(=O)O)C[C@H](N)[C@H]1NC(C)=O [OSELTAMIVIR CARBOXYLATE] | 0.37 | 0.288 | 1.8 | 1.3
10 | Cn1c(=O)c2c(ncn2CC(O)CO)n(C)c1=O (stereo not given) [DYPHYLLINE] | 0.42 | 0.288 | 1.7 | 1.5
11 | CNC(=C[N+](=O)[O-])NCCSCc1csc(CN(C)C)n1 [NIZATIDINE] | 1 | 0.588 | 1.5 | 1.7
12 | CN(C)CCCN1c2ccccc2CCc2ccc(Cl)cc21 [CLOMIPRAMINE] | 13 | 0.492 |  | 26
13 | CN(C)[C@@H]1C(O)=C(C(N)=O)C(=O)[C@@]2(O)C(O)=C3C(=O)c4c(O)cccc4[C@@](C)(O)[C@H]3C[C@@H]12 [TETRACYCLINE] |  | 0.09 |  | 12
14 | NC[C@@H]1CC[C@@H](N)[C@@H](O[C@H]2[C@H](O)[C@@H](O[C@H]3O[C@H](CO)[C@@H](O)[C@H](N)[C@H]3O)[C@H](N)C[C@@H]2N)O1 [DIBEKACIN] |  | 0.048 |  | 2.7
15 | CNCC[C@@H](Oc1ccccc1C)c1ccccc1 [ATOMOXETINE] |  | 0.558 | 5.2 | 1.5
16 | O=c1[nH]cnc2c1ncn2[C@H]1CC[C@@H](CO)O1 [DIDANOSINE] |  | 0.66 | 1.4 | 1.2
17 | COc1cc2nc(N3CCN(C(=O)C4CCCO4)CC3)nc(N)c2cc1OC (stereo not given) [TERAZOSIN] |  | 0.066 | 9 | 
18 | CC1CCN(CCCC(=O)c2ccc(F)cc2)CC1 [MELPERONE] |  | 2.76 |  | 5
19 | C[C@H](CCc1ccccc1)NC[C@H](O)c1ccc(O)c(C(N)=O)c1 [DILEVALOL] |  | 1.74 | 3.3 | 2.8

Row | Compound | Vd [1] [L/kg] | clearance [2] [L/h/kg] | half-life [3] [h] | MRT [4] [h]
20 | CN1CCC[C@H]1c1cccnc1 [NICOTINE] |  | 1.08 | 2 | 2.4
21 | CN1C(C(=O)Nc2ccccn2)=C(O)c2sccc2S1(=O)=O [TENOXICAM] |  | 0.0018 | 67 | 92
22 | C[C@]12CC[C@@H]3c4ccc(O)cc4CC[C@H]3[C@@H]1CC[C@@H]2O [ESTRADIOL] |  | 1.8 | 1.7 | 0.7
23 | CCC1=C(C)CN(C(=O)NCCc2ccc(S(=O)(=O)NC(=O)N[C@H]3CC[C@H](C)CC3)cc2)C1=O [GLIMEPIRIDE] | 0.19 | 0.03 | 9.95 | 
24 | CC[C@H](C)C(=O)O[C@H]1C[C@H](O)C=C2C=C[C@H](C)[C@H](CC[C@@H](O)C[C@@H](O)CC(=O)O)[C@H]21 [PRAVASTATIN] | 0.46 | 0.84 | 0.78 | 
25 | CCOC(=O)c1ncn2c1CN(C)C(=O)c1cc(F)ccc1-2 [FLUMAZENIL] |  | 0.96 | 0.78 | 1
26 | CCC[C@@H]1C[C@@H](C(=O)N[C@@H]([C@H]2O[C@H](SC)[C@H](O)[C@@H](O)[C@H]2O)[C@H](C)Cl)N(C)C1 [CLINDAMYCIN] |  | 0.27 |  | 2.9
27 | C[C@H]1C[C@H]2[C@@H]3CCC4=CC(=O)C=C[C@]4(C)[C@@]3(F)[C@@H](O)C[C@]2(C)[C@@]1(O)C(=O)CO [BETAMETHASONE] |  | 0.168 |  | 
28 | CC(CCc1ccccc1)NCC(O)c1ccc(O)c(C(N)=O)c1 (stereo not given) [LABETALOL] |  | 1.38 | 4.4 | 
29 | CCCC(CCC)C(=O)O [VALPROIC ACID] | 0.14 | 0.0096 | 12 | 
30 | C[C@@H](O)[C@H]1C(=O)N2C(C(=O)O)=C(SCCN=CN)C[C@H]12 [IMIPENEM ANHYDROUS] |  | 0.18 | 0.95 | 1.3
31 | O=C1Nc2ccc(Cl)cc2C(c2ccccc2Cl)=NC1O (stereo not given) [LORAZEPAM] |  | 0.06 | 17 | 22
32 | C[C@@H]1C[C@H]2[C@@H]3CCC4=CC(=O)C=C[C@]4(C)[C@@]3(F)[C@@H](O)C[C@]2(C)[C@@]1(O)C(=O)CO [DEXAMETHASONE] |  | 0.198 |  | 
33 | C=CC1=C(C(=O)O)N2C(=O)[C@@H](NC(=O)/C(=N\OCC(=O)O)c3csc(N)n3)[C@H]2SC1 [CEFIXIME] | 0.24 | 0.06 | 3.2 | 
34 | C/C=C1\NC(=O)[C@H]2CSSCC/C=C/[C@H](CC(=O)N[C@H](C(C)C)C(=O)N2)OC(=O)[C@H](C(C)C)NC1=O [ROMIDEPSIN] |  | 0.444 | 11 | 2.6
35 | O=C(N[C@H](CO)[C@H](O)c1ccc([N+](=O)[O-])cc1)C(Cl)Cl [CHLORAMPHENICOL] |  | 0.144 | 4.6 | 6.5
36 | C=CCc1ccccc1OCC(O)CNC(C)C (stereo not given) [ALPRENOLOL] |  | 0.9 | 2.5 | 3.6
37 | O=C(O)P(=O)(O)O [FOSCARNET] | 0.5 | 0.126 | 4.7 | 
38 | NCC1(CC(=O)O)CCCCC1 [GABAPENTIN] | 0.71 | 0.102 |  | 7

Row | Compound | Vd [1] [L/kg] | clearance [2] [L/h/kg] | half-life [3] [h] | MRT [4] [h]
39 | CC[C@H]1OC(=O)[C@H](C)[C@@H](O[C@H]2C[C@@](C)(OC)[C@@H](O)[C@H](C)O2)[C@H](C)[C@@H](O[C@@H]2O[C@H](C)C[C@H](N(C)C)[C@H]2O)[C@](C)(O)C[C@@H](C)CN(C)[C@H](C)[C@@H](O)[C@]1(C)O [AZITHROMYCIN] |  | 0.6 | 69 | 57
40 | NCCCC[C@H](N[C@@H](CCc1ccccc1)C(=O)O)C(=O)N1CCC[C@H]1C(=O)O [LISINOPRIL ANHYDROUS] |  | 0.072 |  | 
41 | O=c1[nH]c2ccccc2n1CCCN1CCC(n2c(=O)[nH]c3cc(Cl)ccc32)CC1 [DOMPERIDONE] | 3.4 | 0.57 |  | 6
42 | CCN(CC)C(=O)/C(C#N)=C/c1cc(O)c(O)c([N+](=O)[O-])c1 [ENTACAPONE] | 0.27 | 0.72 |  | 0.38
43 | CCc1nn(CCCN2CCN(c3cccc(Cl)c3)CC2)c(=O)n1CCOc1ccccc1 [NEFAZODONE] |  | 0.45 | 1.2 | 1.1
44 | CN(C)CCC(c1ccc(Cl)cc1)c1ccccn1 (stereo not given) [CHLORPHENIRAMINE] | 3.3 | 0.15 |  | 22
45 | COC(=O)O[C@@]12CO[C@@H]1C[C@H](O)[C@@]1(C)C(=O)[C@H](OC(C)=O)C3=C(C)[C@@H](OC(=O)[C@H](O)[C@@H](NC(=O)c4ccccc4)c4ccccc4)C[C@@](O)([C@@H](OC(=O)c4ccccc4)[C@H]21)C3(C)C [BMS-188797] | 6.9 | 0.516 |  | 13
46 | CC(C)NCC(O)COc1ccc(COCCOC(C)C)cc1 (stereo not given) [BISOPROLOL] | 2.4 | 0.222 | 10 | 
47 | CN(Cc1cnc2nc(N)nc(N)c2n1)c1ccc(C(=O)N[C@@H](CCC(=O)O)C(=O)O)cc1 [METHOTREXATE] | 0.43 | 0.126 |  | 3.4
48 | CCC(C)n1ncn(-c2ccc(N3CCN(c4ccc(OCC5COC(Cn6cncn6)(c6ccc(Cl)cc6Cl)O5)cc4)CC3)cc2)c1=O (stereo not given) [ITRACONAZOLE] | 7.4 | 0.306 | 25 | 
49 | CN(C)CCCC1(c2ccc(F)cc2)OCc2cc(C#N)ccc21 (stereo not given) [CITALOPRAM] |  | 0.258 | 33 | 47
50 | CN1CCN2c3ncccc3Cc3ccccc3C2C1 (stereo not given) [MIRTAZAPINE] | 4.2 | 0.48 |  | 8.8
51 | CO[C@H]1/C=C/O[C@@]2(C)Oc3c(C)c(O)c4c(O)c(c(/C=N/N5CCN(C)CC5)c(O)c4c3C2=O)NC(=O)/C(C)=C\C=C\[C@H](C)[C@H](O)[C@@H](C)[C@@H](O)[C@@H](C)[C@H](OC(C)=O)[C@@H]1C [RIFAMPIN] | 0.97 | 0.21 |  | 4.6
52 | NC12CC3CC(CC(C3)C1)C2 [AMANTADINE] |  | 0.288 | 16 | 23
53 | COc1cc2nc(N3CCN(C(=O)C4COc5ccccc5O4)CC3)nc(N)c2cc1OC (stereo not given) [DOXAZOSIN] | 1.3 |  | 10 | 14
54 | Cc1ncc2n1-c1ccc(Cl)cc1C(c1ccccc1F)=NC2 [MIDAZOLAM] |  | 0.318 | 3.1 | 3.5
55 | CNC(=C[N+](=O)[O-])NCCSCc1ccc(CN(C)C)o1 [RANITIDINE] | 1.2 |  | 2.1 | 2.1
56 | COc1ccc(C(CN(C)C)C2(O)CCCCC2)cc1 (stereo not given) [VENLAFAXINE] |  | 0.84 | 5 | 5.2
